How the values were obtained:
[1] = target: T1, Serine/threonine-protein kinase B-raf [416-766,V600E] (Homo sapiens, UniProt P15056, V600E); experiment: Biochemical Assay for B-Raf (V600E) (1)
T1 construct: 416-766
Procedure: Activity of B-Raf (V600E) (SEQ. ID NO: 4) kinase was determined spectroscopically using a coupled pyruvate kinase/lactate dehydrogenase assay that continuously monitors the ATP hydrolysis-dependent oxidation of NADH (e.g., Schindler et al., Science, 2000, 289, 1938-1942). Assays were conducted in 384-well plates (100 μL final volume) using 0.03 nM B-Raf (SignalChem), 1.5 units pyruvate kinase, 2.1 units lactate dehydrogenase, 1 mM phosphoenol pyruvate, 0.28 mM NADH, 30.1 nM MEK (SignalChem), and 1 mM ATP in assay buffer (100 mM Tris, Ph 7.5, 15 mM MgCl2, 0.5 mM DTT, 0.1% octyl-glucoside, 0.002% (w/v) BSA, and 0.002% Triton X-100). Inhibition of B-Raf (V600E) was measured by adding serial diluted test compound (final assay concentration of 1% DMSO). A decrease in absorption at 340 nm was monitored continuously for 6 h at 30° C. on a multi-mode microplate reader (BioTek). The reaction rate was calculated using the 3 to 4 h time frame. The reaction rate at each concentration of compound was converted to percent inhibition using controls (i.e., reaction with no test compound and reaction with a known inhibitor) and IC50 values were calculated by fitting a four-parameter sigmoidal curve to the data using Prism (GraphPad software).

[2] = target: T2, RAF proto-oncogene serine/threonine-protein kinase [306-648,Y340D,Y341D] (Homo sapiens, UniProt P04049, Y340D/Y341D); experiment: Biochemical Assay for C-Raf (1)
T2 construct: 306-648
T2 sequence (P04049 306-648 Y340D/Y341D): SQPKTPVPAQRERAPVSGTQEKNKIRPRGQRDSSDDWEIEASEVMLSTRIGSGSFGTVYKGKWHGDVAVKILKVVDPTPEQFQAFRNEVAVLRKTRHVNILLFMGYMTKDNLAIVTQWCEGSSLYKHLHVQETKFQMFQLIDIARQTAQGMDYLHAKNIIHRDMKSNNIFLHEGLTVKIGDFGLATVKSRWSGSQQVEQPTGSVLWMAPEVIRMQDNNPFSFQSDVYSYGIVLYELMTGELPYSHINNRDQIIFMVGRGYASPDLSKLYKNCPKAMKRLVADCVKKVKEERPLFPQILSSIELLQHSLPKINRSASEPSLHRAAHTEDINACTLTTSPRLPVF
Procedure: (§1) Activity of C-Raf kinase (SEQ. ID NO: 3) was determined spectroscopically using a coupled pyruvate kinase/lactate dehydrogenase assay that continuously monitors the ATP hydrolysis-dependent oxidation of NADH (e.g., Schindler et al., Science, 2000, 289, 1938-1942). Assays were conducted in 384-well plates (100 μL final volume) using 0.43 nM C-Raf (Sigma), 1.5 units pyruvate kinase, 2.1 units lactate dehydrogenase, 1 mM phosphoenol pyruvate, 0.28 mM NADH, 30.1 nM MEK (SignalChem), and 1 mM ATP in assay buffer (100 mM Tris, Ph 7.5, 15 mM MgCl2, 0.5 mM DTT, 0.1% octyl-glucoside, 0.002% (w/v) BSA, and 0.002% Triton X-100). Inhibition of C-Raf was measured by adding serial diluted test compound (final assay concentration of 1% DMSO). A decrease in absorption at 340 nm was monitored continuously for 6 h at 30° C. on a multi-mode microplate reader (BioTek). The reaction rate was calculated using the 4 to 5 h time frame. The reaction rate at each concentration of compound was converted to percent inhibition using controls (i.e., reaction with no test compound and reaction with a known inhibitor) and IC50 values were calculated by fitting a four-parameter sigmoidal curve to the data using Prism (GraphPad software).

[3] = target: T3, Serine/threonine-protein kinase B-raf [416-766] (UniProt P15056); experiment: Biochemical Assay for B-Raf (1)
T3 construct: 416-766
T3 sequence (P15056 416-766): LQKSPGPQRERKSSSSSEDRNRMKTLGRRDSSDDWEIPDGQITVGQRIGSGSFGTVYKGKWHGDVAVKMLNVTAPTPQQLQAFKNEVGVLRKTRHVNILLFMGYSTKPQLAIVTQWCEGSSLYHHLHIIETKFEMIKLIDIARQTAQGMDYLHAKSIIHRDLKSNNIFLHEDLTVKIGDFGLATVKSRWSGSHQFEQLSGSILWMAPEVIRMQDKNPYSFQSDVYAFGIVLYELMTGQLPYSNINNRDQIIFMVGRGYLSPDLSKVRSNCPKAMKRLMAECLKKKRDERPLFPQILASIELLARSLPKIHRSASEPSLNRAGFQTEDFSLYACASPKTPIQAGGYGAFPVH
Procedure: as §1, with “B-Raf” for “C-Raf”, “2)” for “3)”, “0.13” for “0.43”

T1 sequence (P15056 416-766 V600E): as the sequence (P15056 416-766) above, with V185E counted along it

IC50 [1] | IC50 [2] | IC50 [3] | Structure (SMILES)
< 100 nM | – | – | Cc1ccc(NC(=O)c2ccnc(C(F)(F)F)c2)cc1-c1cc(-c2ccnc(N)c2)n(C)c(=O)c1 [US12319655, Example 53]
– | < 100 nM | < 100 nM | Cc1ccc(NC(=O)c2ccnc(C(C)(C)C#N)c2)cc1-c1ccnc(-c2ccncc2)c1 [US12319655, Example 55]
< 100 nM | < 100 nM | – | Cc1ccc(NC(=O)c2ccnc(C(F)(F)F)c2)cc1-c1cccc(-c2ccnc(NC(=O)C3CC3)c2)c1 [US12319655, Example 58]
– | < 100 nM | < 100 nM | Cc1ccc(NC(=O)c2cnnc(C3CC3)c2)cc1-c1nccc(-c2ccnc(NC(=O)C3CC3)c2)n1 [US12319655, Example 272]
